Experimental findings from ChEMBL document CHEMBL1121877, “Isomeric phenylthioimidazo[1,2-alpha]pyridines as anthelmintics” (1981) are described below.

Common to all, as to format: functional
The species named for experiment [1] is Mus musculus. Kind of experiment: Compound (1000 p.p.m.) was tested for percent reduction of Nematospiroides dubius in mice.
The species named for experiment [2] is Mus musculus. Kind of experiment: Compound (125 p.p.m.) was tested for percent reduction of Nematospiroides dubius in mice.
For experiment [3], the species on record is Mus musculus. Kind of experiment: Compound (250 p.p.m.) was tested for percent reduction of Nematospiroides dubius in mice.
The species named for experiment [4] is Mus musculus. The experiment is described as follows: Compound (500 p.p.m.) was tested for percent reduction of Nematospiroides dubius in mice.
For experiment [5], the species on record is Mus musculus. The experiment is described as follows: Compound (62.5 p.p.m.) was tested for percent reduction of Nematospiroides dubius in mice.

Consider `COC(=O)Nc1cn2ccccc2n1`, for which, in experiment [1], the Reduction amounted to 54%.
`COC(=O)Nc1cn2c(Sc3ccccc3)cccc2n1` showed a Reduction in experiment [1] of 0%.
On to `COC(=O)Nc1cn2cc(Sc3ccccc3)ccc2n1`, for which the Reduction is given as 75% in experiment [2], 98% in experiment [3], 100% in experiment [4] and 20% in experiment [5].
`COC(=O)Nc1cn2cccc(Sc3ccccc3)c2n1` returned a Reduction in experiment [1] of 0%.
As for `COC(=O)Nc1cn2cc([S+]([O-])c3ccccc3)ccc2n1` (stereo not given), the Reduction is recorded as 100% in experiment [2], 100% in experiment [3] and 90% in experiment [5].
For `COC(=O)Nc1cn2ccc(Sc3ccccc3)cc2n1`, the Reduction in experiment [1] was found to be 0%.
Turning to `CC(C)OC(=O)Nc1ccc2[nH]c(-c3cscn3)nc2c1` [CAMBENDAZOLE], the Reduction in experiment [2] stood at 0%; in experiment [3] it was 20%; in experiment [4], 80%; in experiment [5], 0%; in experiment [1], 100%.
In the case of `COC(=O)Nc1nc2cc(Sc3ccccc3)ccc2[nH]1` [FENBENDAZOLE], the Reduction in experiment [2] was found to be 74%; in experiment [3], 97%; in experiment [4], 100%; in experiment [5], 0%.
As to `c1ccc2[nH]c(-c3cscn3)nc2c1` [THIABENDAZOLE], the Reduction in experiment [2] came to 0%; in experiment [3], 0%; in experiment [4] it was 47%; in experiment [5] it was 0%; in experiment [1], 87%.
